The record followed here is patent US8822468B2 (Novartis AG, priority 2008, dated 2014).

The target in the test is T1, cMET receptor tyrosine kinase (GST-cMET (969-1390)) (Homo sapiens, UniProt P08581).
T1 construct: made in house
T1 sequence (P08581 969-1390): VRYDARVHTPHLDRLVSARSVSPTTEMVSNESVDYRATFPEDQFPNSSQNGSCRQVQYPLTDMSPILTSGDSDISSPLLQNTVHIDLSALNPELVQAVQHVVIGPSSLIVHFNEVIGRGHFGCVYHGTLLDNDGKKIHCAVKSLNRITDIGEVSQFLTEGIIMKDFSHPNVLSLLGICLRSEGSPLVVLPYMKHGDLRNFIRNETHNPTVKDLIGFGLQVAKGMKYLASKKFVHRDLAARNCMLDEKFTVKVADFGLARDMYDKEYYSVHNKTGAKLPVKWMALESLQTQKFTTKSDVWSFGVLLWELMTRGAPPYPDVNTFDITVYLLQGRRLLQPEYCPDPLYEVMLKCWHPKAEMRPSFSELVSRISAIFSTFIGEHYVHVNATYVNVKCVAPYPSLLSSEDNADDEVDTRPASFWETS
Briefly: EPK cMET profiling assay (LanthaScreen TR-FRET antibody based kinase phosphorylation assay). The format is biochemical. The settings on record: purified recombinant GST-cMET (969-1390), 2 μM ATP, 50 nM Fluorescein-PolyEAY, 60 minutes at room temperature; read-out: c-Met IC50. The method in brief: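 GST-cMET cytoplasmic domain (969-1390), 0.3 nM, phosphorylated 50 nM fluorescein-PolyEAY with 2 µM ATP, Mg2+/Mn2+, 0.6% DMSO, 60 min at room temperature. Stopped with EDTA; Tb-PY20 antibody TR-FRET single end-point read. Final compound concentrations 10 to 0.003 µM, 8 points.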
In the case of `CCn1cc(-c2ccc3ncc(Cc4ccc5nccn5c4)n3n2)cn1` [Example 289, 6-(1-Ethyl-1H-pyrazol-4-yl)-3-imidazo[1,2-a]pyridin-6-ylmethyl-imidazo[1,2-b]pyridazine], the concentration for half-maximal inhibition (IC50) was found to be 140 nM.

Regarding `c1cn2cc(Cc3cnc4ccc(-c5cn[nH]c5)nn34)ccc2n1` [Example 290, 3-Imidazo[1,2-a]pyridin-6-ylmethyl-6-(1H-pyrazol-4-yl)-imidazo[1,2-b]pyridazine], the IC50 stood at 120 nM.

Turning to `c1cn2cc(Cc3cnc4ccc(-c5cnn(C6CCNCC6)c5)nn34)ccc2n1` [Example 291, 3-Imidazo[1,2-a]pyridin-6-ylmethyl-6-(1-piperidin-4-yl-1H-pyrazol-4-yl)-imidazo[1,2-b]pyridazine], the IC50 is 590 nM.

For `C[C@H](c1ccc2nccn2c1)c1cnc2ccc(-c3cnn(C)c3)nn12` [Example 294, 3-((R)-1-Imidazo[1,2-a]pyridin-6-yl-ethyl)-6-(1-methyl-1H-pyrazol-4-yl)-imidazo[1,2-b]pyridazine], the half-inhibitory concentration (IC50) was 820 nM.

`C[C@@H](c1ccc2nccn2c1)c1cnc2ccc(-c3cnn(C)c3)nn12` [Example 295, 3-((S)-1-Imidazo[1,2-a]pyridin-6-yl-ethyl)-6-(1-methyl-1H-pyrazol-4-yl)-imidazo[1,2-b]pyridazine]: the IC50 is 19 nM.

On to `Cn1cc(-c2ccc3ncc(Cc4ccc5ncc(Br)n5c4)n3n2)cn1` [Example 296, 3-(3-Bromo-imidazo[1,2-a]pyridin-6-ylmethyl)-6-(1-methyl-1H-pyrazol-4-yl)-imidazo[1,2-b]pyridazine], for which the IC50 was 57 nM.

Take `Cn1cc(-c2ccc3ncc(Cc4ccc5ncc(C=O)n5c4)n3n2)cn1` [Example 297, 6-[6-(1-Methyl-1H-pyrazol-4-yl)-imidazo[1,2-b]pyridazin-3-ylmethyl]-imidazo[1,2-a]pyridine-3-carbaldehyde]: the IC50 was determined as 130 nM.

On to `Cn1cc(-c2ccc3ncc(Cc4ccc5ncc(Cl)n5c4)n3n2)cn1` [Example 298, 3-(3-Chloro-imidazo[1,2-a]pyridin-6-ylmethyl)-6-(1-methyl-1H-pyrazol-4-yl)-imidazo[1,2-b]pyridazine], for which the IC50 came out at 130 nM.

Regarding `C=Cc1cnc2ccc(Cc3cnc4ccc(-c5cnn(C)c5)nn34)cn12` [Example 299, 6-(1-Methyl-1H-pyrazol-4-yl)-3-(3-vinyl-imidazo[1,2-a]pyridin-6-ylmethyl)-imidazo[1,2-b]pyridazine], the IC50 is 270 nM.

On to `Cn1cc(-c2ccc3ncc(Cc4ccc5ncc(CO)n5c4)n3n2)cn1` [Example 300, {6-[6-(1-Methyl-1H-pyrazol-4-yl)-imidazo[1,2-b]pyridazin-3-ylmethyl]-imidazo[1,2-a]pyridin-3-yl}-methanol], for which the IC50 came to 300 nM.

In the case of `CC(=O)c1cnc2ccc(Cc3cnc4ccc(-c5cnn(C)c5)nn34)cn12` [Example 301, 1-{6-[6-(1-Methyl-1H-pyrazol-4-yl)-imidazo[1,2-b]pyridazin-3-ylmethyl]-imidazo[1,2-a]pyridin-3-yl}-ethanone], the IC50 turned out to be 71 nM.

Turning to `Cn1cc(-c2ccc3ncc(Cc4ccc5ncc(C#N)n5c4)n3n2)cn1` [Example 302, 6-[6-(1-Methyl-1H-pyrazol-4-yl)-imidazo[1,2-b]pyridazin-3-ylmethyl]-imidazo[1,2-a]pyridine-3-carbonitrile], the IC50 came to 94 nM.

For the compound `CC(O)c1cnc2ccc(Cc3cnc4ccc(-c5cnn(C)c5)nn34)cn12` (centres unmarked) [Example 303, 1-{6-[6-(1-Methyl-1H-pyrazol-4-yl)-imidazo[1,2-b]pyridazin-3-ylmethyl]-imidazo[1,2-a]pyridin-3-yl}-ethanol], the IC50 amounted to 190 nM.

On to `Cn1cc(-c2ccc3ncc(Cc4ccc5ncc(C(O)CO)n5c4)n3n2)cn1` (centres unmarked) [Example 304, 1-{6-[6-(1-Methyl-1H-pyrazol-4-yl)-imidazo[1,2-b]pyridazin-3-ylmethyl]-imidazo[1,2-a]pyridin-3-yl}-ethane-1,2-diol], for which the half-inhibitory concentration (IC50) came to 330 nM.

Regarding `Cn1cc(-c2ccc3ncc(Cc4ccc5ncc(-c6cccc(C#N)c6)n5c4)n3n2)cn1` [Example 305, 3-{6-[6-(1-Methyl-1H-pyrazol-4-yl)-imidazo[1,2-b]pyridazin-3-ylmethyl]-imidazo[1,2-a]pyridin-3-yl}-benzonitrile], the half-maximal inhibitory concentration (IC50) turned out to be 260 nM.

`Cn1cc(-c2ccc3ncc(Cc4ccc5ncc(-c6cccnc6)n5c4)n3n2)cn1` [Example 306, 6-(1-Methyl-1H-pyrazol-4-yl)-3-(3-pyridin-3-yl-imidazo[1,2-a]pyridin-6-ylmethyl)-imidazo[1,2-b]pyridazine]: the IC50 is 100 nM.

Turning to `Cn1cc(-c2ccc3ncc(Cc4ccc5ncc(-c6cnn(C)c6)n5c4)n3n2)cn1` [Example 307, 6-(1-Methyl-1H-pyrazol-4-yl)-3-[3-(1-methyl-1H-pyrazol-4-yl)-imidazo[1,2-a]pyridin-6-ylmethyl]-imidazo[1,2-b]pyridazine], the IC50 worked out at 320 nM.

As usually defined, the IC50 is the concentration that inhibits the measured activity by half.
